Legend:
bulrush [1] = assay: Test Example 1: herbicidal efficacy on rice paddy weeds pre-emergence; type: in vivo, Scirpus juncoides; settings: 21 days
false pimpernel [2] = assay: Test Example 2: herbicidal efficacy on rice paddy weeds post-emergence; type: in vivo, Lindernia pyxidaria; settings: post-emergence, one leaf stage, 21 days after treatment
false pimpernel [3] = assay: Test Example 1: herbicidal efficacy on rice paddy weeds pre-emergence; type: in vivo, Lindernia pyxidaria; settings: 21 days
[4] = system: paddy rice plant (cultivar: Nihonbare); assay: Test Example 3: phytotoxicity test for transplanted paddy rice plant; type: in vivo; settings: transplanted rice, 21 days after treatment
How it was run: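 Clay loam soil was placed in a 75 cm^2 plastic pot and flooded to a water depth of 5 cm. Two Nihonbare paddy rice plants at the two-leaf stage were transplanted 1 cm deep and grown in a hot house. After treatment, pots stayed in the hot house for 21 days, and phytotoxicity was then graded against an untreated control.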

[5] = system: transplanted paddy rice plant and Bulrush; assay: Test Example 5: selectivity between transplanted paddy rice plant and weeds; type: in vivo; settings: (highest dosage with no phytotoxicity to paddy rice)/(lowest dosage with effective level 4 on Bulrush); rice 3000-100 g/ha, Bulrush 300-10 g/ha; 21 days
Procedure: (§1) The standard of judgment for herbicidal efficacy (degree of growth inhibition) and phytotoxicity 4 . . . 90%-100% of herbicidal efficacy or phytotoxicity 3 . . . 70%-89% of herbicidal efficacy or phytotoxicity 2 . . . 40%-69% of herbicidal efficacy or phytotoxicity 1 . . . 1%-39% of herbicidal efficacy or phytotoxicity 0 . . . 0% of herbicidal efficacy or phytotoxicity
Phytotoxicity test for transplanted paddy rice plants was carried out, as in Test Example 3, by the treatment of 3000, 1000, 300 and 100 (g/ha of the active ingredient) dosage, and herbicidal test to weed post-emergence was carried out to Burlush seeded as in Test Example 2 treating at 300, 100, 30 and 10 (g/ha) dosage. The pots were kept in a hot house for 21 days after the treatment, and the phytotoxicity and the herbicidal efficacy was investigated and evaluated according to the standard in Test Example 1 by comparing with the untreated control. […] Further, as a comparative compound, the compound No. 6-28 described in the JP-A-2004-107322 was used.

bulrush [6] = assay: Test Example 2: herbicidal efficacy on rice paddy weeds post-emergence; type: in vivo, Scirpus juncoides; settings: post-emergence, one leaf stage, 21 days after treatment
bulrush [7] = assay: Test Example 4: low dosage test for rice paddy weeds; type: in vivo, Scirpus juncoides; settings: 300 g/ha as an active ingredient; plants treated at the one leaf stage; 21 days after treatment; vs untreated control
Description: as §1
A 75 cm^2 plastic pot was filled with soil (clay loam) and planted seeds of bulrush which is a rice paddy weed. After covering the top with 75 cm^3 soil, the pot was filled with water so that the soil submerged under 5 cm depth of water and kept in a hot house. The test plants, at the one leaf stage, were treated with the solution of a formulation containing the compound of the present invention as an active ingredient at the predetermined effective dosage (300 g/ha as an active ingredient). The pots were kept in a hot house for 21 days after the treatment and the herbicidal efficacy was investigated and evaluated according to the standard in Test Example 1 by comparing with the untreated control. Further, as a comparative compound, the compound No. 6-28 described in the JP-A-2004-107322 was used.

barnyard glass = assay: Test Example 2: herbicidal efficacy on rice paddy weeds post-emergence; type: in vivo, Echinochloa crus-galli; settings: post-emergence, one leaf stage, 21 days after treatment
How it was run: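 Plastic pots of 75 cm^2 were filled with clay loam soil and sown with barnyard glass and bulrush seeds, then topped with 75 cm^3 soil containing false pimpernel seeds. The pots were flooded to 5 cm water depth and held in a hot house. Twenty-one days after treatment, herbicidal efficacy was graded against an untreated control.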

[8] = dosage 1000 g/ha, treated 5 days after transplantation

Row | Compound | Bulrush pre (herbicidal efficacy grade) (bulrush [1]; dosage 1000 g/ha) | False pimpernel post (herbicidal efficacy grade) (false pimpernel [2]; dosage 1000 g/ha) | False pimpernel pre (herbicidal efficacy grade) (false pimpernel [3]; dosage 1000 g/ha) | Phytotoxicity to paddy rice [4, 8] | Selective Index [5] | Bulrush post (herbicidal efficacy grade) (bulrush [6]; dosage 1000 g/ha) | Herbicide effect to Bulrush (bulrush [7]) | Burnyard grass post (herbicidal efficacy grade) (barnyard glass; dosage 1000 g/ha) | Bulrush pre (herbicidal efficacy grade) (bulrush [1]; dosage 300 g/ha) | False pimpernel post (herbicidal efficacy grade) (false pimpernel [2]; dosage 300 g/ha) | False pimpernel pre (herbicidal efficacy grade) (false pimpernel [3]; dosage 300 g/ha) | Phytotoxicity to paddy rice ([4]; dosage 300 g/ha) | Bulrush post (herbicidal efficacy grade) (bulrush [6]; dosage 300 g/ha) | Burnyard grass post (herbicidal efficacy grade) (barnyard glass; dosage 300 g/ha)
1 | CCC1CN(Cc2ccccc2N(C(=O)CC(C)C)S(=O)(=O)C(F)(F)F)C(=O)O1 (racemic) [1-53] | 4 (90%-100% of herbicidal efficacy or phytotoxicity) | 4 (90%-100% of herbicidal efficacy or phytotoxicity) | 4 (90%-100% of herbicidal efficacy or phytotoxicity) | 0 (0% of herbicidal efficacy or phytotoxicity) | 10 | 4 (90%-100% of herbicidal efficacy or phytotoxicity) | 3 (70%-89% of herbicidal efficacy or phytotoxicity) | 4 (90%-100% of herbicidal efficacy or phytotoxicity) |  |  |  |  |  | 
2 | COC(=O)N(c1ccccc1CN1CC(C)OC1=O)S(=O)(=O)C(F)(F)F (racemic) [1-54] | 4 (90%-100% of herbicidal efficacy or phytotoxicity) |  | 4 (90%-100% of herbicidal efficacy or phytotoxicity) | 0 (0% of herbicidal efficacy or phytotoxicity) | 33.3 | 4 (90%-100% of herbicidal efficacy or phytotoxicity) | 4 (90%-100% of herbicidal efficacy or phytotoxicity) | 4 (90%-100% of herbicidal efficacy or phytotoxicity) |  |  |  |  |  | 
3 | CCC1(C)CN(Cc2ccccc2NS(=O)(=O)C(F)(F)F)C(=O)O1 (racemic) [1-59] |  |  |  |  | 3.3 |  | 4 (90%-100% of herbicidal efficacy or phytotoxicity) |  | 4 (90%-100% of herbicidal efficacy or phytotoxicity) | 4 (90%-100% of herbicidal efficacy or phytotoxicity) | 4 (90%-100% of herbicidal efficacy or phytotoxicity) | 3 (70%-89% of herbicidal efficacy or phytotoxicity) | 4 (90%-100% of herbicidal efficacy or phytotoxicity) | 3 (70%-89% of herbicidal efficacy or phytotoxicity)
4 | CCC1(C)CN(Cc2ccccc2N(C(=O)OCC(C)C)S(=O)(=O)C(F)(F)F)C(=O)O1 (racemic) [1-60] | 4 (90%-100% of herbicidal efficacy or phytotoxicity) | 4 (90%-100% of herbicidal efficacy or phytotoxicity) | 4 (90%-100% of herbicidal efficacy or phytotoxicity) | 3 (70%-89% of herbicidal efficacy or phytotoxicity) | ≧30 | 4 (90%-100% of herbicidal efficacy or phytotoxicity) | 4 (90%-100% of herbicidal efficacy or phytotoxicity) | 4 (90%-100% of herbicidal efficacy or phytotoxicity) |  |  |  |  |  | 
5 | CC(C)C1(C)CN(Cc2ccccc2NS(=O)(=O)C(F)(F)F)C(=O)O1 (racemic) [1-101] | 4 (90%-100% of herbicidal efficacy or phytotoxicity) | 4 (90%-100% of herbicidal efficacy or phytotoxicity) | 4 (90%-100% of herbicidal efficacy or phytotoxicity) | 1 (1%-39% of herbicidal efficacy or phytotoxicity) | 10 | 4 (90%-100% of herbicidal efficacy or phytotoxicity) | 4 (90%-100% of herbicidal efficacy or phytotoxicity) | 4 (90%-100% of herbicidal efficacy or phytotoxicity) |  |  |  |  |  | 
6 | O=C1OC2(CCC2)CN1Cc1ccccc1NS(=O)(=O)C(F)(F)F [1-87] |  |  |  |  | 3 |  | 3 (70%-89% of herbicidal efficacy or phytotoxicity) |  | 4 (90%-100% of herbicidal efficacy or phytotoxicity) | 4 (90%-100% of herbicidal efficacy or phytotoxicity) | 4 (90%-100% of herbicidal efficacy or phytotoxicity) | 1 (1%-39% of herbicidal efficacy or phytotoxicity) | 4 (90%-100% of herbicidal efficacy or phytotoxicity) | 
7 | CCC1(CC)CN(Cc2ccccc2N(C(=O)OC)S(=O)(=O)C(F)(F)F)C(=O)O1 [1-109] | 4 (90%-100% of herbicidal efficacy or phytotoxicity) | 4 (90%-100% of herbicidal efficacy or phytotoxicity) | 4 (90%-100% of herbicidal efficacy or phytotoxicity) | 1 (1%-39% of herbicidal efficacy or phytotoxicity) | ≧30 | 4 (90%-100% of herbicidal efficacy or phytotoxicity) | 4 (90%-100% of herbicidal efficacy or phytotoxicity) |  |  |  |  |  |  | 
8 | COCC1(C)CN(Cc2ccccc2N(C(=O)OC)S(=O)(=O)C(F)(F)F)C(=O)O1 (stereo not drawn) [1-147] |  |  |  |  | 10 |  | 4 (90%-100% of herbicidal efficacy or phytotoxicity) |  | 4 (90%-100% of herbicidal efficacy or phytotoxicity) | 4 (90%-100% of herbicidal efficacy or phytotoxicity) | 4 (90%-100% of herbicidal efficacy or phytotoxicity) | 1 (1%-39% of herbicidal efficacy or phytotoxicity) | 4 (90%-100% of herbicidal efficacy or phytotoxicity) | 
9 | COC(=O)N(c1ccccc1CN1CC(C(F)(F)F)OC1=O)S(=O)(=O)C(F)(F)F (stereo not drawn) [1-151] | 4 (90%-100% of herbicidal efficacy or phytotoxicity) | 4 (90%-100% of herbicidal efficacy or phytotoxicity) | 4 (90%-100% of herbicidal efficacy or phytotoxicity) | 1 (1%-39% of herbicidal efficacy or phytotoxicity) | 3 | 4 (90%-100% of herbicidal efficacy or phytotoxicity) | 3 (70%-89% of herbicidal efficacy or phytotoxicity) |  |  |  |  |  |  | 
10 | O=C1OC(C2CC2)(C2CC2)CN1Cc1ccccc1NS(=O)(=O)C(F)(F)F [1-170] | 4 (90%-100% of herbicidal efficacy or phytotoxicity) | 4 (90%-100% of herbicidal efficacy or phytotoxicity) | 4 (90%-100% of herbicidal efficacy or phytotoxicity) | 2 (40%-69% of herbicidal efficacy or phytotoxicity) | 10 | 4 (90%-100% of herbicidal efficacy or phytotoxicity) | 4 (90%-100% of herbicidal efficacy or phytotoxicity) |  |  |  |  |  |  | 
11 | COC(=O)N(c1ccccc1CN1CC(C2CC2)(C2CC2)OC1=O)S(=O)(=O)C(F)(F)F [1-172] | 4 (90%-100% of herbicidal efficacy or phytotoxicity) | 4 (90%-100% of herbicidal efficacy or phytotoxicity) | 4 (90%-100% of herbicidal efficacy or phytotoxicity) | 1 (1%-39% of herbicidal efficacy or phytotoxicity) | 10 | 4 (90%-100% of herbicidal efficacy or phytotoxicity) | 4 (90%-100% of herbicidal efficacy or phytotoxicity) |  |  |  |  |  |  | 

Source: US20080274892A1, “Novel Haloalkylsulfonanilide Derivative, Herbicide, and Method of Use Thereof” (priority 2005, published 2008)
